These results are taken from patent EP4781984A1 (Beyang Therapeutics Co., Ltd., priority 2023, dated 2025).

As a reminder, the solubility is how much of the substance goes into solution per volume. Usually fraction unbound stands for the share of the substance not bound to proteins or other matrix. Read a low fraction unbound as little free substance.

Data set [1] in a line: Thermodynamic solubility test. The data set is classed as physicochemical. The settings on record: buffer solution, aqueous buffer, thermodynamic from solid; thermodynamic solubility, room temperature, 8 hours shaking; buffers pH 2.0, 6.5, 7.4 used, pH of the tabulated value not given. The procedure:
Solubility Test of Compounds
Table 9. Reagents and Instruments
After sonication for 10 minutes, they were fixed on a shaker and shaken at room temperature for 8 hours. After shaking, they were sonicated for 10 minutes and centrifuged at 13000 rpm for 15 minutes. 0.1 mL of supernatant was aspirated into a new tube, rinsed with 5 mL of buffer by shaking, and the liquid was discarded. 0.5 mL of supernatant was transferred again to a new tube, centrifuged at 13000 rpm for 15 minutes, and the supernatant was taken (diluted with water if necessary) for LC-MS injection analysis. Sample concentrations were quantified using a 3-5 point calibration curve.

For data set [2], the system named is melanin. Briefly: Compound binding to melanin. Format: in vitro ADME. Particulars: cuttlefish (Sepia officinalis), melanin suspension (1 mg/mL), percentage of free drug (not bound to melanin), 2 µM compound, melanin 1 mg/mL in PBS pH 7.4, 37°C. An excerpt:
Detection of Compound Binding to Melanin
Pigmented ocular tissues contain melanin within intracellular melanosomes. Drugs bind to melanin to varying degrees, from no binding to extensive binding. Therefore, melanin binding is an important characteristic affecting ocular drug delivery and biodistribution. The ability of compounds to bind to melanin must be considered in ocular drug development.
Melanin derived from cuttlefish (Sepia officinalis) melanin was purchased from Sigma Aldrich (St Louis, MO).
First, prepare a 1 mg/mL melanin suspension in PBS (pH 7.4). As a matrix washing step, suspended particles were centrifuged at 3000 rpm for 5 minutes. The resulting pellet was resuspended in fresh PBS buffer, heated to 37°C with continuous shaking, and incubated for 1 hour. Accurately pipette 2 microliters of test compound stock solution (0.1 mM) into 98 microliters of melanin suspension (1 mg/mL), resulting in a final incubation concentration of 2 µM. Similarly, accurately pipette 2 microliters of stock solution (0.1 mM) into 98 microliters of PBS buffer (containing 0.1% BSA) as a blank control sample. Samples were incubated at 37°C for 2 hours on a shaker (80-90 rpm). Then centrifuged at room temperature. 50 microliters of supernatant was aspirated and added to 50 microliters of precipitation agent (containing internal standard). All samples above were subjected to protein precipitation, centrifuged, the supernatant was taken, diluted with water (if necessary), and then injected for analysis. Simultaneously, high-binding compounds Sunitinib and chloroquine, and the low-binding compound celecoxib were measured as positive controls. An LC-MS/MS analytical method for determining compound concentration was established. The ratio of analyte/internal standard peak areas (Aanalyte/AIS) measured in the samples, calibrated by the dilution factor, was used as the surrogate concentration for data processing. The binding rate of the compound to melanin (Fb) is calculated by the formula: Fb = 100−(Ctest)/(Ccontrol) × 100% [formula]
Ctest is the drug concentration of the compound in the melanin incubation sample or the peak area ratio of the test compound to the internal standard. Ccontrol is the drug concentration of the compound in the blank control sample or the peak area ratio of the test compound to the internal standard. Percentage of free drug (Fu%) = 100 - Fb The binding rates of the compounds of the present invention to melanin are shown in the table below: Table 11. Binding Rate of Compounds to Melanin

Values after ≈ are worked out from the molar mass of the structure shown. Bounds are passed on as bounds.

The compound `CNC(=O)c1ccccc1Sc1ccc2c(C#Cc3ccc(OCCN4CCCC4)cn3)n[nH]c2c1` [Compound I-16] displayed a solubility at 8 h in data set [1] of 27.2 µg/mL (≈ 54.7 µM). Moreover, in data set [2], the fraction unbound at 2 h, 2 µM was no more than 0.01.

The compound `O=C(NC1CC1)c1ccccc1Sc1ccc2c(/C=C/c3ccc(OCCN4CCCC4)cn3)n[nH]c2c1` [Compound I-8, N-cyclopropyl-2-((3-((E)-2-(5-(2-(pyrrolidin-1-yl)ethoxy)pyridin-2-yl)ethenyl)-1H-indazol-6-yl)thio)benzamide] yielded a solubility at 8 h in data set [1] of 1870 µg/mL (≈ 3560 µM). In addition, the fraction unbound at 2 h, 2 µM in data set [2] was in the range of 0.01 to 0.05.

On to `O=C(NC1CC1)c1ccccc1Sc1ccc2c(/C=C/c3ccc(OCCN4CCCCC4)cn3)n[nH]c2c1` [Compound I-53], for which, in data set [2], the fraction unbound at 2 h, 2 µM is greater than 0.05.

For `CNC(=O)c1cccc(F)c1Sc1ccc2c(/C=C/c3ccc(OCCN4CCCC4)cn3)n[nH]c2c1` [Compound I-33, 3-fluoro-N-methyl-2-({3-[(E)-2-{5-[2-(pyrrolidin-1-yl)ethoxy]pyridin-2-yl}ethenyl]-1H-indazol-6-yl}sulfanyl)benzamide], the solubility at 8 h in data set [1] amounted to 57.7 µg/mL (≈ 111 µM). This compound yielded a fraction unbound at 2 h, 2 µM in data set [2] greater than 0.05.

For the compound `CNC(=O)c1cc(F)ccc1Sc1ccc2c(/C=C/c3ccc(OCCN4CCCC4)cn3)n[nH]c2c1` [Compound I-34, 5-fluoro-N-methyl-2-({3-[(E)-2-{5-[2-(pyrrolidin-1-yl)ethoxy]pyridin-2-yl}ethenyl]-1H-indazol-6-yl}sulfanyl)benzamide], the solubility at 8 h in data set [1] came out at 19.3 µg/mL (≈ 37.3 µM). The compound also had a fraction unbound at 2 h, 2 µM in data set [2] greater than 0.05.

In data set [1], `CNC(=O)c1ccc(F)cc1Sc1ccc2c(/C=C/c3ccc(OCCN4CCCC4)cn3)n[nH]c2c1` [Compound I-35, 4-fluoro-N-methyl-2-({3-[(E)-2-{5-[2-(pyrrolidin-1-yl)ethoxy]pyridin-2-yl}ethenyl]-1H-indazol-6-yl}sulfanyl)benzamide] showed a solubility at 8 h of 26.6 µg/mL (≈ 51.4 µM). The fraction unbound at 2 h, 2 µM in data set [2] was 0.01 to 0.05.

`CNC(=O)c1ccccc1Sc1ccc2c(/C=C/c3cc(OCCN4CCCC4)ccn3)n[nH]c2c1` [Compound I-20] showed a solubility at 8 h in data set [1] of 128 µg/mL (≈ 256 µM). In data set [2], this compound came in with a fraction unbound at 2 h, 2 µM of 0.01 to 0.05.

`CCN(CC)Cc1ccc(/C=C/c2n[nH]c3cc(Sc4ccccc4C(=O)NC4CC4)ccc23)nc1` [Compound I-78] gave a solubility at 8 h in data set [1] of 27.6 µg/mL (≈ 55.5 µM). This compound had a fraction unbound at 2 h, 2 µM in data set [2] of 0.01 to 0.05.

`CCN(CC)Cc1ccc(/C=C/c2n[nH]c3cc(Sc4cc(F)ccc4C(=O)NC4CC4)ccc23)nc1` [Compound I-83, N-cyclopropyl-4-fluoro-2-({3-[(E)-2-{5-[(diethylamino)methyl]pyridin-2-yl}ethenyl]-1H-indazol-6-yl}thio)benzamide] returned a solubility at 8 h in data set [1] of 79.6 µg/mL (≈ 154 µM). The same compound displayed a fraction unbound at 2 h, 2 µM in data set [2] greater than 0.05.

The compound `CCN(CC)Cc1ccc(/C=C/c2n[nH]c3cc(Sc4ccc(F)cc4C(=O)NC)ccc23)nc1` [Compound I-93] had a fraction unbound at 2 h, 2 µM in data set [2] of 0.01 to 0.05.

The compound `CNC(=O)c1ccccc1Sc1cnc2c(/C=C/c3ccccn3)n[nH]c2c1` [Compound I-21, N-methyl-2-({3-[(E)-2-(pyridin-2-yl)ethenyl]-1H-pyrazolo[4,3-b]pyridin-6-yl}sulfanyl)benzamide] returned a solubility at 8 h in data set [1] of 0.9 µg/mL (≈ 2.32 µM). In addition, the fraction unbound at 2 h, 2 µM in data set [2] is 0.01 to 0.05.

In turn, `CCN(CC)CCOc1ccc(/C=C/c2n[nH]c3cc(Sc4ccccc4C(=O)NC4CC4)ccc23)nc1` [Compound I-52] showed a fraction unbound at 2 h, 2 µM in data set [2] greater than 0.05.

The compound `O=C(NC1CC1)c1ccccc1Sc1ccc2c(/C=C/c3cnn(CCN4CCCC4)c3)n[nH]c2c1` [Compound I-61] yielded a fraction unbound at 2 h, 2 µM in data set [2] of 0.01 to 0.05.

In the case of `O=C(NC1CC1)c1ccccc1Sc1ccc2c(/C=C/c3cnn(CCCN4CCCC4)c3)n[nH]c2c1` [Compound I-43], the solubility at 8 h in data set [1] turned out to be 71.6 µg/mL (≈ 140 µM). Moreover, the fraction unbound at 2 h, 2 µM in data set [2] was 0.01 to 0.05.

Consider `CCNC(=O)c1ccccc1Sc1ccc2c(/C=C/c3ccc(CN4CCCC4)cn3)n[nH]c2c1` [Compound I-73, N-ethyl-2-({3-[(E)-2-{5-[(pyrrolidin-1-yl)methyl]pyridin-2-yl}ethenyl]-1H-indazol-6-yl}thio)benzamide], for which, in data set [2], the fraction unbound at 2 h, 2 µM lay in the range of 0.01 to 0.05.

Compound `O=C(NC1CC1)c1ccccc1Sc1ccc2c(/C=C/c3cc(CN4CCCC4)ccn3)n[nH]c2c1` [Compound I-115] came in with a fraction unbound at 2 h, 2 µM in data set [2] of 0.01 to 0.05.

Consider `CNC(=O)c1ccccc1Sc1ccc2c(/C=C/c3cccc(OCCN4CCCC4)n3)n[nH]c2c1` [Compound I-17], for which the solubility at 8 h in data set [1] was determined as 278 µg/mL (≈ 556 µM). In data set [2], the fraction unbound at 2 h, 2 µM fell in the range of 0.01 to 0.05.

Consider `O=C(NC1CC1)c1cc(F)ccc1Sc1ccc2c(/C=C/c3ccc(CN4CCCC4)cn3)n[nH]c2c1` [Compound I-80], for which the concentration in solution in data set [1] (solubility at 8 h) came to 199 µg/mL (≈ 387 µM). The same compound yielded a fraction unbound at 2 h, 2 µM in data set [2] of 0.01 to 0.05.

`CCN(CC)Cc1ccc(/C=C/c2n[nH]c3cc(Sc4ccccc4C(=O)NC)ccc23)nc1` [Compound I-90] gave a solubility at 8 h in data set [1] of 31.9 µg/mL (≈ 67.6 µM). In data set [2], this compound showed a fraction unbound at 2 h, 2 µM of 0.01 to 0.05.

The compound `CNC(=O)c1ccccc1Sc1ccc2c(/C=C/c3ccn(CCCN4CCCC4)n3)n[nH]c2c1` [Compound I-11] yielded a solubility at 8 h in data set [1] of 866 µg/mL (≈ 1780 µM). Besides, the fraction unbound at 2 h, 2 µM in data set [2] lay in the range of 0.01 to 0.05.

As to `O=C(NC1CC1)c1ccccc1Sc1ccc2c(/C=C/c3ccc(CN4CCCC4)cn3)n[nH]c2c1` [Compound I-41], the fraction unbound at 2 h, 2 µM in data set [2] is greater than 0.05.

`CCN(CC)Cc1ccc(/C=C/c2n[nH]c3cc(Sc4ccccc4C(=O)NCC(F)(F)F)ccc23)nc1` [Compound I-100]: in data set [1], the solubility at 8 h is 209 µg/mL (≈ 387 µM). Besides, the fraction unbound at 2 h, 2 µM in data set [2] is greater than 0.05.

Turning to `CNC(=O)c1ccc(F)cc1Sc1ccc2c(/C=C/c3ccc(CN4CCCC4)cn3)n[nH]c2c1` [Compound I-94], in data set [1], the solubility at 8 h was 31.8 µg/mL (≈ 65.2 µM). Besides, in data set [2], the fraction unbound at 2 h, 2 µM was in the range of 0.01 to 0.05.

For the compound `CNC(=O)c1ccccc1Sc1ccc2c(/C=C/c3ccnc(OCCN4CCCC4)c3)n[nH]c2c1` [Compound I-18], the fraction unbound at 2 h, 2 µM in data set [2] fell in the range of 0.01 to 0.05.

In data set [2], `CN(C)CCOc1ccc(/C=C/c2n[nH]c3cc(Sc4ccccc4C(=O)NC4CC4)ccc23)nc1` [Compound I-51, N-cyclopropyl-2-({3-[(E)-2-{5-[2-(dimethylamino)ethoxy]pyridin-2-yl}ethenyl]-1H-indazol-6-yl}sulfanyl)benzamide] gave an unbound share (fraction unbound) at 2 h, 2 µM of 0.01 to 0.05.

Take `CCN(CC)Cc1ccc(/C=C/c2n[nH]c3cc(Sc4ccccc4C(=O)NCC(F)F)ccc23)nc1` [Compound I-99]: the concentration in solution in data set [1] (solubility at 8 h) was 341 µg/mL (≈ 654 µM). In data set [2], this compound returned a fraction unbound at 2 h, 2 µM greater than 0.05.

The compound `CNC(=O)c1ccccc1Sc1ccc2c(/C=C/c3cnn(CCN4CCCC4)c3)n[nH]c2c1` [Compound I-9] registered a solubility at 8 h in data set [1] of 363 µg/mL (≈ 768 µM). The fraction unbound at 2 h, 2 µM in data set [2] lay in the range of 0.01 to 0.05.

Compound `CNC(=O)c1cccc(F)c1Sc1ccc2c(/C=C/c3cnn(CCCN4CCCC4)c3)n[nH]c2c1` [Compound I-76] registered a solubility at 8 h in data set [1] of 1770 µg/mL (≈ 3520 µM). The fraction unbound at 2 h, 2 µM in data set [2] is greater than 0.05.

In data set [2], `CNC(=O)c1ccccc1Sc1ccc2c(/C=C/c3ccc(CCN4CCCC4)cn3)n[nH]c2c1` [Compound I-107] showed a fraction unbound at 2 h, 2 µM of 0.01 to 0.05.

With `CCN(CC)Cc1ccc(/C=C/c2n[nH]c3cc(Sc4ccccc4C(=O)NCCF)ccc23)nc1` [Compound I-98, 2-({3-[(E)-2-{5-[(diethylamino)methyl]pyridin-2-yl}ethenyl]-1H-indazol-6-yl}sulfanyl)-N-(2-fluoroethyl)benzamide], the solubility at 8 h in data set [1] was determined as 456 µg/mL (≈ 905 µM). In data set [2], the fraction unbound at 2 h, 2 µM was greater than 0.05.
